Laboratory results as given in patent publication EP0359505A1, “Dopamine-beta hydroxylase inhibitors” (SMITHKLINE BEECHAM CORPORATION, priority 1988, dated 1990).

Legend:
DBH = target: T1, DBH (Homo sapiens, UniProt P09172); conditions: as reported by Runti et al.; cited from earlier work
T1 sequence (P09172 1-617): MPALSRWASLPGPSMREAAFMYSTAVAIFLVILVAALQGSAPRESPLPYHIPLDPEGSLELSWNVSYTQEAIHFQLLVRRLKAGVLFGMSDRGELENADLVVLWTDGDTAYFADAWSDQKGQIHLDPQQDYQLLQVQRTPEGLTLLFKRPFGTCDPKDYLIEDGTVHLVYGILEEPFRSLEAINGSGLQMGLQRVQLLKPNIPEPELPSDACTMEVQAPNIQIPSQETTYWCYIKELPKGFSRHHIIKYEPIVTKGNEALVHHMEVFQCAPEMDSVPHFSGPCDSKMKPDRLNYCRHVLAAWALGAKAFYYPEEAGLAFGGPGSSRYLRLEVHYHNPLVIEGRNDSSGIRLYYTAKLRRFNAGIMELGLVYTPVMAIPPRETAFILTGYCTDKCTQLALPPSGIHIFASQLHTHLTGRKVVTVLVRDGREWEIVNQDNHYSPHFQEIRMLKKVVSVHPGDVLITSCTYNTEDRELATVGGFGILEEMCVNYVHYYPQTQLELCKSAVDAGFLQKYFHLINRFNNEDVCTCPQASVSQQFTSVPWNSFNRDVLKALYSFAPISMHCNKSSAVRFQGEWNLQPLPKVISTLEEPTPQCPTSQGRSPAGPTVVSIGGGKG

[1] = test system: spontaneously hypertensive rats; experiment: mean arterial blood pressure in spontaneously hypertensive rats, indwelling cannulae in the tail arteries; format: in vivo; conditions: 100 mg/kg orally
Experimental: Further, spontaneously hypertensive rats were treated with 3-mercapto-4-benzyl-5-(4-pyridyl)-1,2,4-triazole at a dose of 100 mg/kg orally and mean arterial blood pressure was monitored for 250 minutes using indwelling cannulae in the tail arteries. […] The maximal blood pressure reduction was approximately 25 mmHg.

[2] = see Teresawa et al.; cited from earlier work

phenylpicolinic acid
inhibitory activity relative to fusaric acid (DBH): twice the inhibitory activity of fusaric acid

Sc1nnc(-c2ccncc2)n1Cc1ccccc1 [3-Mercapto-4-benzyl-5-(4-pyridyl)-1,2,4-triazole]
blood pressure compared to vehicle-treated controls ([1]; between 80 and 240 minutes following treatment): significant blood pressure reductions | maximal blood pressure reduction ([1]; mean arterial blood pressure monitored for 250 minutes, compared to vehicle-treated controls): approximately 25 mmHg

CCCCc1ccc(C(=O)O)nc1 [Fusaric acid]
toxic effects [2]: hepatotoxic
